From PubChem BioAssay AID248 (DTP/NCI, 2004)
Where “and” joins values, the source holds several entries; their conditions need not be identical. Identical values can stand only once. Inconclusive results and toxic doses are left out. Rule as the data show it: active = T/C of 150% or more; inactive = T/C below 125%.

Tested on: L1210 leukemia ip in BDF1 mice, survival T/C
Assay: NCI In Vivo Anticancer Drug Screen. Data for tumor model L1210 Leukemia (intraperitoneal) in B6D2F1 (BDF1) mice
Settings: endpoint: mean survival time, higher = longer survival
Procedure, shortened: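 Transplantable tumor model; survival measured in treated vs vehicle control mice. Value = treated/control.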

[1] = dose: 100.0 mg/kg/injection, schedule: Q01DX009 (ip), vehicle: Klucel (hydroxypropylcellulose) (HPC)
[2] = dose: 100.0 mg/kg/injection, schedule: Q04DX003 (ip), vehicle: Klucel (hydroxypropylcellulose) (HPC)
[3] = dose: 200.0 mg/kg/injection, schedule: Q01DX009 (ip), vehicle: Klucel (hydroxypropylcellulose) (HPC)
[4] = dose: 200.0 mg/kg/injection, schedule: Q04DX003 (ip), vehicle: Klucel (hydroxypropylcellulose) (HPC)
[5] = dose: 400.0 mg/kg/injection, schedule: Q04DX003 (ip), vehicle: Klucel (hydroxypropylcellulose) (HPC)
[6] = dose: 100.0 mg/kg/injection, schedule: Q01DX001 (ip), vehicle: saline
[7] = dose: 200.0 mg/kg/injection, schedule: Q01DX001 (ip), vehicle: saline
[8] = dose: 400.0 mg/kg/injection, schedule: Q01DX009 (ip), vehicle: Klucel (hydroxypropylcellulose) (HPC)
[9] = dose: 100.0 mg/kg/injection, schedule: Q01DX001 (ip), vehicle: Klucel (hydroxypropylcellulose) (HPC)
[10] = dose: 200.0 mg/kg/injection, schedule: Q01DX001 (ip), vehicle: Klucel (hydroxypropylcellulose) (HPC)
[11] = dose: 100.0 mg/kg/injection, schedule: Q01DX009 (ip), vehicle: saline with Tween-80
[12] = dose: 200.0 mg/kg/injection, schedule: Q01DX009 (ip), vehicle: saline with Tween-80
[13] = dose: 400.0 mg/kg/injection, schedule: Q01DX009 (ip), vehicle: saline with Tween-80
[14] = dose: 50.0 mg/kg/injection, schedule: Q01DX009 (ip), vehicle: saline
[15] = dose: 100.0 mg/kg/injection, schedule: Q01DX009 (ip), vehicle: saline
[16] = dose: 200.0 mg/kg/injection, schedule: Q01DX009 (ip), vehicle: saline

Measured: T/C

COc1ccc(/C=C2\C(=O)OC(=O)\C2=C\c2ccc(OC)c(OC)c2)cc1OC
inactive: [1] 100 % of control | [2] 102 % of control | [3] 97 % of control | [4] 102 % of control | [5] 96 % of control

CC1=C(O)C(=O)C=C2C1=CC=C1[C@@]2(C)CC[C@@]2(C)[C@@H]3C[C@](C)(C(=O)O)CC[C@]3(C)CC[C@]12C
inactive: dose: 5.0 mg/kg/injection, schedule: Q01DX001 (ip), vehicle: carboxymethylcellulose (CMC) 95 % of control and 100 % of control | dose: 10.0 mg/kg/injection, schedule: Q01DX001 (ip), vehicle: carboxymethylcellulose (CMC) 97 % of control | dose: 20.0 mg/kg/injection, schedule: Q01DX001 (ip), vehicle: carboxymethylcellulose (CMC) 103 % of control and 89 % of control | dose: 40.0 mg/kg/injection, schedule: Q01DX001 (ip), vehicle: carboxymethylcellulose (CMC) 122 % of control

Cc1cc(C(=O)O)c2cc(Br)ccc2n1
inactive: dose: 25.0 mg/kg/injection, schedule: Q01DX009 (ip), vehicle: Klucel (hydroxypropylcellulose) (HPC) 100 % of control | dose: 50.0 mg/kg/injection, schedule: Q01DX009 (ip), vehicle: Klucel (hydroxypropylcellulose) (HPC) 98 % of control | [1] 96 % of control

C=C(C)C1CCC2(CO)CCC3(C)C(CCC4C5(C)CCC(OC6CCCCO6)C(C)(C)C5CCC43C)C12 (stereo not given)
inactive: dose: 25.0 mg/kg/injection, schedule: Q04DX002 (ip), vehicle: saline with Tween-80 96 % of control | dose: 50.0 mg/kg/injection, schedule: Q04DX002 (ip), vehicle: saline with Tween-80 93 % of control

CN(C)C(C(=O)O)c1ccccc1 (stereo not given)
inactive: dose: 100.0 mg/kg/injection, schedule: Q04DX002 (ip), vehicle: saline with Tween-80 101 % of control | dose: 200.0 mg/kg/injection, schedule: Q04DX002 (ip), vehicle: saline with Tween-80 97 % of control | dose: 400.0 mg/kg/injection, schedule: Q04DX002 (ip), vehicle: saline with Tween-80 97 % of control

Nc1nc(N2CCCCC2)c2nc(Cl)n(C3OC(CO)C(O)C3O)c2n1 (stereo not given)
inactive: [6] 96 % of control | [7] 94 % of control | dose: 400.0 mg/kg/injection, schedule: Q01DX001 (ip), vehicle: saline 97 % of control

CC(C)=C(Cl)c1c(C)cc(C)c(CC(N)=O)c1C
inactive: [1] 98 % of control | [2] 93 % of control | [3] 105 % of control | [4] 98 % of control | [8] 96 % of control | [5] 98 % of control

CN1CCC(c2ccccc2)(c2ccccc2)OC1
inactive: dose: 100.0 mg/kg/injection, schedule: Q04DX003 (ip), vehicle: saline with Tween-80 94 % of control

C/C=C\C=N\NC(N)=S
inactive: dose: 12.5 mg/kg/injection, schedule: Q04DX003 (ip), vehicle: saline with Tween-80 95 % of control | dose: 25.0 mg/kg/injection, schedule: Q04DX003 (ip), vehicle: saline with Tween-80 103 % of control | dose: 50.0 mg/kg/injection, schedule: Q04DX003 (ip), vehicle: saline with Tween-80 95 % of control

c1ccc2[nH]c(-c3c[nH]c4ccccc34)cc2c1
inactive: dose: 50.0 mg/kg/injection, schedule: Q01DX001 (ip), vehicle: saline 106 % of control | [6] 102 % of control | [7] 106 % of control

CC(=O)CC(C)=Nc1cccc(Cl)c1
inactive: [9] 106 % of control | [1] 92 % of control | [10] 103 % of control | [3] 108 % of control | dose: 400.0 mg/kg/injection, schedule: Q01DX001 (ip), vehicle: Klucel (hydroxypropylcellulose) (HPC) 100 % of control | [8] 94 % of control

Cc1cccc(C)c1NC(=O)Nc1ncccn1
inactive: dose: 25.0 mg/kg/injection, schedule: Q04DX002 (ip), vehicle: Klucel (hydroxypropylcellulose) (HPC) 99 % of control | dose: 50.0 mg/kg/injection, schedule: Q04DX002 (ip), vehicle: Klucel (hydroxypropylcellulose) (HPC) 96 % of control | [1] 103 % of control | dose: 100.0 mg/kg/injection, schedule: Q04DX002 (ip), vehicle: Klucel (hydroxypropylcellulose) (HPC) 105 % of control | [3] 104 % of control | dose: 200.0 mg/kg/injection, schedule: Q04DX002 (ip), vehicle: Klucel (hydroxypropylcellulose) (HPC) 97 % of control | [8] 101 % of control | dose: 400.0 mg/kg/injection, schedule: Q04DX002 (ip), vehicle: Klucel (hydroxypropylcellulose) (HPC) 93 % of control

CC(C)C(C)/C=C/C(C)C1CCC2C3CCC4CC(O)CCC4(C)C3CCC12C (stereo not given)
inactive: [9] 90 % of control | [10] 97 % of control

COC(=O)c1ccccc1NC(=O)c1ccco1
inactive: [1] 97 % of control | [3] 96 % of control | [8] 91 % of control

Cc1cccc(C)c1NC(=O)Nc1ccc(S(N)(=O)=O)cc1
inactive: [1] 100 % of control | [2] 101 % of control | [3] 95 % of control and 97 % of control | [4] 94 % of control | [8] 100 % of control and 88 % of control | [5] 92 % of control

COc1ccccc1OCC(C)=O
inactive: [11] 95 % of control | [12] 105 % of control | [13] 105 % of control

COc1ccc(OC)c(C2=CCCCCC2)c1OC
inactive: [11] 95 % of control | [12] 106 % of control | [13] 100 % of control

CCCCNP(=O)(OCC)OCC
inactive: dose: 12.5 mg/kg/injection, schedule: Q01DX009 (ip), vehicle: saline 91 % of control | dose: 12.5 mg/kg/injection, schedule: Q04DX003 (ip), vehicle: saline 101 % of control | dose: 25.0 mg/kg/injection, schedule: Q01DX009 (ip), vehicle: saline 104 % of control | dose: 25.0 mg/kg/injection, schedule: Q04DX003 (ip), vehicle: saline 113 % of control | [14] 104 % of control | dose: 50.0 mg/kg/injection, schedule: Q04DX003 (ip), vehicle: saline 101 % of control | [15] 109 % of control | dose: 100.0 mg/kg/injection, schedule: Q04DX003 (ip), vehicle: saline 101 % of control | [16] 96 % of control | dose: 200.0 mg/kg/injection, schedule: Q04DX003 (ip), vehicle: saline 101 % of control

O=C(c1ccccc1)N(CCCl)C(=O)N(CCCl)C(=O)c1ccccc1
inactive: dose: 75.0 mg/kg/injection, schedule: Q01DX001 (ip), vehicle: carboxymethylcellulose (CMC) 104 % of control | dose: 75.0 mg/kg/injection, schedule: Q01DX009 (ip), vehicle: saline with Tween-80 95 % of control | dose: 75.0 mg/kg/injection, schedule: Q04DX003 (ip), vehicle: saline with Tween-80 91 % of control | dose: 150.0 mg/kg/injection, schedule: Q01DX001 (ip), vehicle: carboxymethylcellulose (CMC) 101 % of control | dose: 150.0 mg/kg/injection, schedule: Q01DX009 (ip), vehicle: saline with Tween-80 98 % of control | dose: 150.0 mg/kg/injection, schedule: Q04DX003 (ip), vehicle: saline with Tween-80 92 % of control | dose: 300.0 mg/kg/injection, schedule: Q01DX001 (ip), vehicle: carboxymethylcellulose (CMC) 103 % of control | dose: 300.0 mg/kg/injection, schedule: Q04DX003 (ip), vehicle: saline with Tween-80 89 % of control

O=C(O)C(CCl)(CCl)CCl
inactive: [14] 106 % of control | [15] 98 % of control | [16] 95 % of control
